Several values for one entry are separate records, joined by “and”; a condition that tells them apart may be missing. Identical values can stand only once.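 Protocol summary: plate cells (96-well), add compound at 5 concentrations, incubate 48 h, interpolate endpoints linearly. GI50 = concentration required for 50% inhibition of growth. TGI is the concentration that stops growth completely.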
Assays:
Assay in all cases: inhibition of tumour cell growth, NCI panel, 48 h
CAKI-1 renal = tested on: CAKI-1 renal
CCRF-CEM leukemia = tested on: CCRF-CEM leukemia
HOP-92 NSCLC = tested on: HOP-92 NSCLC
HCT-15 colon = tested on: HCT-15 colon
UACC-257 melanoma = tested on: UACC-257 melanoma
SN12C renal = tested on: SN12C renal
SK-MEL-2 melanoma = tested on: SK-MEL-2 melanoma
MOLT-4 leukemia = tested on: MOLT-4 leukemia
SW-620 colon = tested on: SW-620 colon
M14 melanoma = tested on: M14 melanoma

SMILES	TGI (CAKI-1 renal)	TGI (CCRF-CEM leukemia) [µM]	TGI (HOP-92 NSCLC)	TGI (HCT-15 colon)	TGI (UACC-257 melanoma)	TGI (SN12C renal)	TGI (SK-MEL-2 melanoma)	TGI (MOLT-4 leukemia) [µM]	TGI (SW-620 colon)	GI50 (CAKI-1 renal) [µM]	GI50 (CCRF-CEM leukemia) [µM]	GI50 (HCT-15 colon) [µM]	GI50 (M14 melanoma) [µM]	TGI (M14 melanoma) [µM]	GI50 (UACC-257 melanoma)	GI50 (SN12C renal) [µM]	GI50 (MOLT-4 leukemia) [µM]	GI50 (SW-620 colon) [µM]	GI50 (SK-MEL-2 melanoma) [µM]	GI50 (HOP-92 NSCLC) [µM]
CCC12CCCN(Cc3ccccc3)C1c1c(n(C)c3ccccc13)CC2 (stereo not given)	> 253 µM	> 253	> 253 µM	> 253 µM	> 253 µM	> 253 µM	> 253 µM	> 253	> 253 µM											
NC(N)=N/N=C/c1c(-c2ccsc2)nc2sccn12	21.9 µM	6.07		31.7 µM	41.1 µM	29.7 µM		39	43.1 µM	10.3	1.48	17.1	18.5	32.4	22.3 µM	15.7	10.8	18.3		
C#CCOc1cccc(-c2ncc3cc(NC(=O)CCl)ccc3n2)c1	3.31 µM	0.994			3.96 µM	2.93 µM	3.63 µM		3.25 µM	1.88	0.252		1.81	4.54	2.02 µM	1.44		1.56	1.58	
COC(=O)C[C@](O)(CCCC(C)(C)O)C(=O)O[C@@H]1C(OC)=C[C@]23CCCN2CCc2cc4c(cc2[C@H]13)OCO4	1.61 µM and 1.2 µM		0.633 µM and 0.156 µM	1.85 µM and 4.71 µM	0.839 µM and 0.0881 µM	0.666 µM and 0.526 µM	0.994 µM and 0.198 µM		2.59 µM and 5.05 µM	0.252	0.0282	0.0944	0.0228		0.205 µM and 0.0232 µM	0.0405		0.0293	0.0455	0.0224
CNCc1ccccc1-c1csc([C@@H](C)Nc2nc(C)nc3cc(OC)c(OC)cc23)c1	2.55 µM	5.3		3.55 µM	3.51 µM	5.02 µM	3.69 µM		3.44 µM	1.28	2.26	1.61	1.79	3.35	1.82 µM	1.48		1.49	1.87	
CC/C=C\C[C@H](O)C/C=C1/C(=O)C(Cl)=C[C@@H]1C/C=C\CCCC(=O)OC	1.89 µM	1.73	5.46 µM	1.67 µM		1.33 µM	3.52 µM	1.95	1.29 µM	0.523	0.412	0.387	0.611	3.43		0.426	0.472	0.318	0.843	2.57
N.N.N.N.O=C([O-])CCl.O=C([O-])CCl.[Co+3].[O-][Cl+3]([O-])([O-])[O-]		> 100	> 100 µM	> 100 µM	> 100 µM	> 100 µM	> 100 µM	> 100	> 100 µM		> 100	> 100	> 100	> 100	> 100 µM	> 100	> 100	> 100	> 100	86.5
C=C1C(=O)OC2CC(C)C(C(CC(C)=O)OC(C)=O)=CCC12 (stereo not given)	8.05 µM	> 35	21.2 µM	7.96 µM	37.4 µM	15 µM	40.8 µM	20.4	10.6 µM					36.9						
CN(C)CCNC(=O)c1cccc2ccc(-c3ccc(O)cc3)nc12	6.53 µM and 11.3 µM	7.25	11.3 µM and 11.6 µM	14.4 µM	8.29 µM and 10.1 µM	13.2 µM	15.9 µM and 9.73 µM	0.692	11.1 µM					2.75	1.06 µM					
CC(C)NC(=O)OCc1c(COC(=O)NC(C)C)c(-c2cc[n+](COC(=O)C3CC3)cc2)n2c1CCC2	> 100 µM	> 100	> 100 µM	> 100 µM	> 100 µM	> 100 µM	> 100 µM	> 100	> 100 µM					> 100						
CCN(CC)CCCN1CCc2c([nH]c3ccccc23)C1c1cccnc1 (stereo not given)	> 100 µM	> 100	> 100 µM	> 100 µM	> 100 µM	> 100 µM	> 100 µM	> 100	> 100 µM					> 100						
Cc1cc(Cl)cc(OCCn2cc(F)cn2)c1-c1nc(N)nc2c1CN(C(=O)NCC(C)(F)F)C2	> 100 µM	> 100	0.728 µM	> 100 µM	> 100 µM	> 100 µM	> 100 µM	> 100	> 100 µM	0.755	0.0507	0.386	0.0848	> 100	0.142 µM	0.0745	0.112	0.043	0.508	0.192
OC(CC1SCCCS1)c1ccccc1 (stereo not given)	> 100 µM	> 100		> 100 µM	> 100 µM	> 100 µM	> 100 µM	> 100	> 100 µM					> 100						
Cc1ccc(S(=O)(=O)Nc2ccccc2C=O)cc1	> 100 µM		13.1 µM	31.6 µM	45.7 µM	45 µM	30.4 µM	34.5	47.5 µM					54.7						
CSc1nc(=O)n(CCC#N)nc1SC	> 100 µM			> 100 µM		> 100 µM	39.8 µM	67.6	58.3 µM					39.9						
COc1ccc2occ(CCC(=O)O)c2c1	> 100 µM	> 100	> 100 µM	> 100 µM	> 100 µM	> 100 µM		> 100	> 100 µM					> 100						
Nc1ccc([N+](=O)[O-])cc1N=C/C=C/c1ccccc1				> 100 µM	> 100 µM	> 100 µM	> 100 µM	> 100	> 100 µM			13.5	8.66	> 100	47.7 µM	8.06	3.89	6.12	28.6	
CCOC(=O)C(C#N)C1=CC(=O)C(=O)c2ccc(OC)cc21 (stereo not given)	72.2 µM	> 100		59.8 µM	31.1 µM	33.8 µM	28.1 µM	> 100	33.3 µM					29.8						
